Holding throughout (type): cell-based
For one assay, the system named is HT29. Put plainly: XTT cell viability, HT29 colon cancer cells. The following applies: Homo sapiens, HT-29; HT29 colon cancer cell line; XTT test; compound in 30 mM HEPES pH=7, 0.25 to 10 μM; read-out: EC50 values on colon and liver cancer cells, HT29. As to the method:
(§1) The effect of the compounds Z522-0249, Z522-0251, Erbitux and E-626-0342 on the growth profile of cancer cells which express Fer was tested. The cells that were tested were: the colon cancer cell lines HT29, HCT 116, RKO, SW620, and SW48 and the liver cancer cell line Hep3B. The effect of each of the three compounds (Z522-0249, Z522-0251 and E-626-0342) on FS11 cells, a non malingnant fibroblastic cell line, was also studied.
(§2) Cells were seeded in 96 well microplates and were left to grow untreated overnight. Z522-0249 and Z522-0251 were dissolved in 30 mM HEPES pH=7 and were then added to each well in a dose dependent manner from 0.25 to 10 μM. E626-0342 was dissolved in DMSO and was then added to each well in a dose dependent manner from 0.1 to 5 μM. The concentration of DMSO in each well was 0.4% v/v. Untreated cells and cells subjected to 30 mM HEPEs pH=7 or 0.4% DMSO alone, served as controls. The number of viable cells in each well was determined 48, 72, and 96 hours after compound addition, using the XTT test (Berridge, M. V. et al, 2005).
(In general: Tetrazolium dyes change colour on reduction, which living cells bring about.)

For the next assay, the system named is SW48. In words: XTT cell viability, SW48 colon cancer cells. The note with it: Homo sapiens; SW48 colon cancer cell line; XTT test; compound in 30 mM HEPES pH=7, 0.25 to 10 μM; read-out: EC50 values on colon and liver cancer cells, SW48. As to the method:
as §1, §2

Another assay deals with Hep3B. Put plainly: XTT cell viability, Hep3B liver cancer cells. The note with it: Homo sapiens; Hep3B liver cancer cell line; XTT test; compound in 30 mM HEPES pH=7, 0.25 to 10 μM; read-out: EC50 values on colon and liver cancer cells, Hep3B. The method, then: as §1, §2
For the next assay, the system named is HCT116. In words: XTT cell viability, HCT116 colon cancer cells. The following applies: Homo sapiens, HCT-116; HCT116 colon cancer cell line; XTT test; compound in 30 mM HEPES pH=7, 0.25 to 10 μM; read-out: EC50 values on colon and liver cancer cells, HCT116. As to the method:
as §1, §2

A further assay relates to SW620. In words: XTT cell viability, SW620 colon cancer cells. The note with it: Homo sapiens, SW-620; SW620 colon cancer cell line; XTT test; compound in 30 mM HEPES pH=7, 0.25 to 10 μM; read-out: EC50 values on colon and liver cancer cells, SW620. As to the method: as §1, §2
For the next assay, the system named is FS (normal fibroblasts). In words: XTT cell viability, FS (normal fibroblasts). The note with it: Fibroblast; FS normal (non malignant) fibroblasts; XTT test; compound in 30 mM HEPES pH=7, 0.25 to 10 μM. The method, then:
as §1, §2

Another assay deals with RKO. Put plainly: XTT cell viability, RKO colon cancer cells. The following applies: Homo sapiens; RKO colon cancer cell line; XTT test; compound in 30 mM HEPES pH=7, 0.25 to 10 μM; read-out: EC50 values on colon and liver cancer cells, RKO. The method, then: as §1, §2

What is called EC50 is the midpoint of the concentration-response curve. Take `CC(C)c1ccc(-c2cn3nc(N4CCN(CC5CCN(C)CC5)CC4)sc3n2)cc1` [Z522-0249, 6-(4-isopropylphenyl)-2-{4-[(1-methylpiperidin-4-yl)methyl]piperazin-1-yl}imidazo[2,1-b][1,3,4]thiadiazole]: the concentration for a half-maximal effect (EC50) was 2000 nM in the assay on HT29; 500 to 1000 nM in the assay on SW48; 1000 to 2000 nM in the assay with Hep3B; 3000 nM with HCT116; 500 to 1000 nM with SW620; 10000 nM in the assay on FS (normal fibroblasts). Also, the concentration for a half-maximal effect (EC50) in the assay on RKO lay in the range of 1000 to 2000 nM.
Take `CC(C)c1ccc(-c2cn3nc(N4CCC(CN5CCN(C)CC5)CC4)sc3n2)cc1` [Z522-0251, 6-(4-isopropyl-phenyl)-2-{4-[(4-methyl-piperazin-1-yl)methyl]piperidin-1-yl}imidazo[2,1-b][1,3,4]thiadiazole]: the concentration giving a half-maximal response (EC50) in the assay on HT29 was 2000 to 3000 nM; in the assay on SW48, 500 to 1000 nM; in the assay with Hep3B it was 1000 to 2000 nM; in the assay with HCT116, 3000 to 4000 nM; in the assay with SW620, 500 to 1000 nM; with RKO, 2000 to 3000 nM.

(Values after patent US8653082B2, “6-phenyl-2-[((piperidin-4-ylmethyl)-piperazin-1YL) or piperazin 1-ylmethyl)-piperidin-1-yl)]-imidazo[2,1-B][1,3,4]thiadiazole derivatives and their use” (Urifer Ltd., priority 2009, dated 2014).)
